The values below come from article PMC5118709, “Identification of Polo-like kinase 1 interaction inhibitors using a novel cell-based assay” (Scientific Reports, 2016).

The subject of the first experiment is HeLa cells. The experiment in a line: mitotic defect phenotypes by immunofluorescence. Type of experiment: cell-based. The following applies: 10 nM, 7 h. As to the method:
HeLa cells were treated with these compounds along with the known PBD inhibitors PPG, TQ, Poloxin and the KD inhibitor BI2536 as controls, and then stained against α-Tubulin, pericentrin (a centrosome marker) and DNA (Fig. 2D). In all cases, there was a marked increase in the frequency of disorganized spindles compared with DMSO-treated control cells. This is expected as Plk1 plays multiple roles in spindle assembly and maintenance. […] Cpd 69, an analog of compound 122, induced a similar phenotype at lower concentrations (data not shown). This phenotype was not seen after treatment with BI2536.
For the mitotic defect phenotypes, 25 200 HeLa cells were plated on poly-L-lysine coated round cover slips in 24-well plates. The day after, cells were treated for 7 hours, and then washed with PHEM buffer at 37 °C before fixation in PHEM buffer containing 4% formaldehyde for 20 minutes at 37 °C. Cells were washed three times with TBS-tween 0.1% and plate was kept overnight at 4 °C. Next steps were followed as previously described except that coverslips were incubated in a dark wet chamber with antibodies. Anti-pericentrin (diluted 1:1000; Abcam), anti-α-tubulin DM1A (diluted 1:500; Sigma-Aldrich), Alexa Fluor 488 anti-rabbit and Texas-Red anti-mouse (diluted 1:200; Invitrogen) were used. Coverslips were mounted on slide using Vectashield media containing DAPI (Vector Laboratories).
Images shown in Fig. 2D were acquired on an AxioImager microscope (Carl Zeiss) with a 100x oil objective (NA 1.4 DICIII) and an AxioCam HRM camera (Carl Zeiss) using AxioVision software (Carl Zeiss).
As for `CC[C@@H]1C(=O)N(C)c2cnc(Nc3ccc(C(=O)NC4CCN(C)CC4)cc3OC)nc2N1C1CCCC1` [BI2536], the “2 > pericentrin foci (percentage of cells)” value amounted to 3 ± 2% and the “Disorganized spindles (percentage of cells)” value was 55 ± 8%.

The target of a further experiment is GST-PBD367-603 of Plk1 (Homo sapiens, UniProt P53350). The experiment in a line: fluorescence polarization assay PBD-phosphopeptide. Particulars: FP - IC50 (μM), Table S3.
GST-PBD367-603 of Plk1, sequence (P53350 367-603): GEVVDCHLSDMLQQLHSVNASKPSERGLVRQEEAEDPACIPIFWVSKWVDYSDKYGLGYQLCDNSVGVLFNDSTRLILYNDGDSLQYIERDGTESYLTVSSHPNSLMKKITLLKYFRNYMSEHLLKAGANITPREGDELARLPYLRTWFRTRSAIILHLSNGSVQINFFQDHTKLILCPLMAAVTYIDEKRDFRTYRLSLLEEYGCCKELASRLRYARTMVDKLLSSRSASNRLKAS
In general, IC50 refers to the concentration that gives 50% inhibition. The compound `O=C(OCCS(=O)(=O)c1ccccn1)c1ccccc1` [Cpd 124] displayed a concentration for half-maximal inhibition (IC50) of 68.6 ± 18.5 µM.

Still in this experiment, the particulars now being: IC50 in FP, GST-PBD367-603 38 nM, 1 h pre-incubation, FITC-phosphopeptide 10 nM, Fig. 4C.
For `O=C(OCCS(=O)(=O)c1ccccn1)c1ccccc1` [Cpd 124], inhibition was half-maximal at 56 µM (IC50).

Still in this experiment, the particulars now being: SAR.
Take `O=C(NCCS(=O)(=O)c1ccc(C(F)(F)F)cn1)c1ccc(Cl)cc1` [Cpd 142]: the “activity in the FP assay” value is “activity was abolished”.

Regarding `Cc1cc(C(F)(F)F)cc(SCCOC(=O)c2cccc(Cl)c2)n1` [Cpd 147, 2-((6-methyl-4-(trifluoromethyl)pyridin-2-yl)thio)ethyl 3-chlorobenzoate], the “activity in the FP assay” value was “activity was abolished”.

`Cc1cc(C(F)(F)F)cc([S+]([O-])CCOC(=O)c2cccc(Cl)c2)n1` (centres unmarked) [Cpd 148, 2-((6-methyl-4-(trifluoromethyl)pyridin-2-yl)sulfinyl)ethyl 3-chlorobenzoate]: the “activity in the FP assay” value is “activity was abolished”.

With `Cc1cc(C(F)(F)F)cc(S(=O)(=O)CCO)n1` [Cpd 158, 2-((6-methyl-4-(trifluoromethyl)pyridin-2-yl)sulfonyl)ethanol], the “activity in the FP assay” value is given as “completely abrogated activity”.

For `CCS(=O)(=O)c1cc(C(F)(F)F)cc(C)n1` [Cpd 169, 2-(ethylsulfonyl)-6-methyl-4-(trifluoromethyl)pyridine], the “activity in the FP assay” value was “completely abrogated activity”.

Staying with this experiment, now noted: Table S3.
Consider `O=S(=O)(CC(O)COc1ccccc1)c1ccccn1` (centres unmarked) [Cpd 136], for which the “FP - IC50 (μM)” value is reported as “No inhibition”.

Turning to `Cc1ccc(S(=O)(=O)CCC(=O)Nc2cccc(Cl)c2)cc1` [Cpd 137], the “FP - IC50 (μM)” value is “No inhibition”.

As to `Cc1ccc(S(=O)(=O)CCC(=O)OCc2ccc(Cl)c(Cl)c2)cc1` [Cpd 138], the “FP - IC50 (μM)” value is reported as “No inhibition”.

With `O=[N+]([O-])c1cccc(S(=O)(=O)NCCOc2cccc(Cl)c2Cl)c1` [Cpd 139], the “FP - IC50 (μM)” value is “No inhibition”.

Consider `Cc1c(Cl)cccc1NC(=O)CCS(=O)(=O)c1ccccc1` [Cpd 140], for which the “FP - IC50 (μM)” value is listed as “No inhibition”.

Regarding `CC(CC(=O)Nc1ccc(Cl)cc1)S(=O)(=O)c1ccc(Cl)cc1` (centres unmarked) [Cpd 141], the “FP - IC50 (μM)” value is reported as “No inhibition”.

For the compound `O=C(NCCS(=O)(=O)c1ccc(C(F)(F)F)cn1)c1ccc(Cl)cc1` [Cpd 142], the “FP - IC50 (μM)” value was “No inhibition”.

`O=C(CS(=O)(=O)c1cc(C(F)(F)F)cc(C(F)(F)F)c1)Nc1ccccc1F` [Cpd 143]: the “FP - IC50 (μM)” value is on record as “No inhibition”.

As for `O=C(CS(=O)(=O)c1ccc(C(F)(F)F)cn1)NNC(=O)c1ccccc1` [Cpd 144], the “FP - IC50 (μM)” value is given as “No inhibition”.

As for `Cc1ccc(NC(=O)CCS(=O)(=O)c2ccccc2)c(Br)c1` [Cpd 145], the “FP - IC50 (μM)” value is “No inhibition”.

In the case of `Cc1cc(C(F)(F)F)cc(SCCO)n1` [Cpd 146, 2-((6-methyl-4-(trifluoromethyl)pyridin-2-yl)thio) ethanol], the “FP - IC50 (μM)” value is recorded as “No inhibition”.

Turning to `Cc1cc(C(F)(F)F)cc(SCCOC(=O)c2cccc(Cl)c2)n1` [Cpd 147, 2-((6-methyl-4-(trifluoromethyl)pyridin-2-yl)thio)ethyl 3-chlorobenzoate], the “FP - IC50 (μM)” value was “No inhibition”.

On to `Cc1cc(C(F)(F)F)cc([S+]([O-])CCOC(=O)c2cccc(Cl)c2)n1` (centres unmarked) [Cpd 148, 2-((6-methyl-4-(trifluoromethyl)pyridin-2-yl)sulfinyl)ethyl 3-chlorobenzoate], for which the “FP - IC50 (μM)” value is “No inhibition”.

On to `Cc1cc(C(F)(F)F)cc(SCCOC(=O)c2cccc(OC(F)(F)F)c2)n1` [Cpd 149], for which the “FP - IC50 (μM)” value is given as “No inhibition”.

Consider `Cc1cccc(C(=O)OCCSc2cc(C(F)(F)F)cc(C)n2)c1` [Cpd 150], for which the “FP - IC50 (μM)” value is on record as “No inhibition”.

`Cc1cc(C(F)(F)F)cc(SCCOC(=O)c2cccc(Br)c2)n1` [Cpd 153]: the “FP - IC50 (μM)” value is “No inhibition”.

As for `Cc1cc(C(F)(F)F)cc(SCCOC(=O)c2cc(Cl)cc(Cl)c2)n1` [Cpd 155], the “FP - IC50 (μM)” value is reported as “No inhibition”.

Consider `Cc1cc(C(F)(F)F)cc(SCCOCc2cccc(Cl)c2)n1` [Cpd 157], for which the “FP - IC50 (μM)” value was “No inhibition”.

In the case of `Cc1cc(C(F)(F)F)cc(S(=O)(=O)CCO)n1` [Cpd 158, 2-((6-methyl-4-(trifluoromethyl)pyridin-2-yl)sulfonyl)ethanol], the “FP - IC50 (μM)” value is recorded as “No inhibition”.

For the compound `Cc1cc(C(F)(F)F)cc(S(=O)(=O)CCOCc2cccc(Cl)c2)n1` [Cpd 159], the “FP - IC50 (μM)” value is reported as “No inhibition”.

With `Cc1cc(C(F)(F)F)cc(SCCOC(=O)C2CCCCC2)n1` [Cpd 168], the “FP - IC50 (μM)” value is recorded as “No inhibition”.

For `CCS(=O)(=O)c1cc(C(F)(F)F)cc(C)n1` [Cpd 169, 2-(ethylsulfonyl)-6-methyl-4-(trifluoromethyl)pyridine], the “FP - IC50 (μM)” value is “No inhibition”.

Staying with this experiment, now noted: read-out: FP - IC50; Table S3.
For `Cc1ccc(C(=O)OCCS(=O)(=O)c2ccc(C(F)(F)F)cn2)cc1` [Cpd 123], the IC50 was found to be 7.2 µM.

With `O=C(OCCS(=O)(=O)c1ccc(C(F)(F)F)cn1)c1cccc(Cl)c1` [Cpd 125], the IC50 stood at 11.9 ± 7.2 µM.

On to `O=C(OCCS(=O)(=O)c1ncccc1Cl)c1cccc(Cl)c1` [Cpd 126], for which the IC50 came out at 4.3 µM.

As to `O=C(OCCS(=O)(=O)c1ccccn1)c1cccc(Cl)c1` [Cpd 127], the IC50 stood at 187 µM.

As for `O=C(OCCS(=O)(=O)c1ncccc1C(F)(F)F)c1cccc(Cl)c1` [Cpd 128], the 50% inhibitory concentration (IC50) is 8.4 µM.

`O=C(OCCS(=O)(=O)c1ccc(C(F)(F)F)cn1)c1ccccc1` [Cpd 129]: the IC50 came out at 8.5 µM.

As for `O=C(OCCS(=O)(=O)c1ccc(C(F)(F)F)cn1)c1ccc(Cl)c(Cl)c1` [Cpd 130], the IC50 worked out at 7.8 µM.

Take `O=C(OCCS(=O)(=O)c1ccc(Cl)cn1)c1cccc(Cl)c1` [Cpd 131]: the IC50 was determined as 70.5 µM.

Turning to `CC(C)(C)c1ccc(C(=O)OCCS(=O)(=O)c2ccc(C(F)(F)F)cn2)cc1` [Cpd 132], the IC50 came out at 26.1 µM.

Regarding `O=C(OCCS(=O)(=O)c1ccc([N+](=O)[O-])cn1)c1cccc(Cl)c1` [Cpd 133], the IC50 stood at 5.4 µM.

On to `Cc1cc(C(F)(F)F)cc(S(=O)(=O)CCOC(=O)c2cccc(OC(F)(F)F)c2)n1` [Cpd 151], for which the IC50 was found to be 41.7 µM.

For `Cc1cccc(C(=O)OCCS(=O)(=O)c2cc(C(F)(F)F)cc(C)n2)c1` [Cpd 152], the IC50 was 54.4 µM.

As to `Cc1cc(C(F)(F)F)cc(S(=O)(=O)CCOC(=O)c2cccc(Br)c2)n1` [Cpd 154], the IC50 came to 36.8 µM.

As to `Cc1cc(C(F)(F)F)cc(S(=O)(=O)CCOC(=O)c2cc(Cl)cc(Cl)c2)n1` [Cpd 156], the half-inhibitory concentration (IC50) came to 48.1 µM.

For `Cc1cc(C(F)(F)F)cc(S(=O)(=O)CCOC(=O)C2CCCCC2)n1` [Cpd 160], the IC50 worked out at 75 µM.

Consider `Cc1cc(C(F)(F)F)cc(S(=O)(=O)CCOS(C)(=O)=O)n1` [Cpd 164, 2-((6-methyl-4-(trifluoromethyl)pyridin-2-yl)sulfonyl) ethyl methanesulfonate], for which the IC50 was 6 µM.
